Test results published in patent US7109193B2, “Tricyclic diazepines tocolytic oxytocin receptor antagonists” (Wyeth, priority 2001, dated 2006).

Target: T1, human vasopressin V2 receptor subtype (Homo sapiens, UniProt P30518)
T1 construct: host or cells: CHO cells (pZeoSV vector)
Test: Vasopressin binding in Chinese Hamster Ovary cell membranes expressing human vasopressin V2 subtype receptors
Details: 100 nM, CHO cell membranes, [3H]arginine vasopressin, values without parentheses
Summary of the method: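 Radioligand displacement on membranes from CHO cells stably expressing human V2 receptor, 25 to 50 μg protein/well, in 50 mM Tris-HCl pH 7.4 with MgCl2, BSA and protease inhibitors. [^3H]arginine vasopressin (8 nM working solution) incubated 60 min at room temperature; bound label measured by filtration and scintillation counting.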

T1 sequence (P30518 whole entry): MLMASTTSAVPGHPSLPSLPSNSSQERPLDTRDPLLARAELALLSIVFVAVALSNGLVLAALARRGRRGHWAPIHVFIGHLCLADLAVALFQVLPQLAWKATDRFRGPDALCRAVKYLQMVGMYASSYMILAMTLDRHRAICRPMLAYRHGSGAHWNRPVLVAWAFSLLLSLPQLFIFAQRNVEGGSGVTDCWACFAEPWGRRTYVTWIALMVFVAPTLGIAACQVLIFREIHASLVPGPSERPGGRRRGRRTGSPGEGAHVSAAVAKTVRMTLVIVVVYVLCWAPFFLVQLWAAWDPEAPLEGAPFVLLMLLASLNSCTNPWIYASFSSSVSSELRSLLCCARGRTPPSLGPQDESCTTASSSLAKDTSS

Row | SMILES | inhibition at 0.1 µM [%]
1 | COc1ccccc1-c1ccc(C(=O)N2Cc3ccc(C(=O)N[C@@H](Cc4c[nH]cn4)C(N)=O)n3Cc3ccccc32)cc1 [Example 285, N-[(1S)-2-Amino-1-(1H-imidazol-4-ylmethyl)-2-oxoethyl]-10-[(2′-methoxy[1,1′-biphenyl]-4-yl)carbonyl]-10,11-dihydro-5H-pyrrolo[2,1-c][1,4]benzodiazepine-3-carboxamide] | 32
2 | COc1cccc(-c2ccc(C(=O)N3Cc4ccc(C(=O)NCCCN(C)C)n4Cc4ccccc43)cc2C)c1 [Example 74, N-[3-(Dimethylamino)propyl]-10-[(3′-methoxy-2-methyl[1,1′-biphenyl]-4-yl)carbonyl]-10,11-dihydro-5H-pyrrolo[2,1-c][1,4]benzodiazepine-3-carboxamide] | 14
3 | COc1ccccc1-c1ccc(C(=O)N2Cc3ccc(C(=O)N4CCN(CCCN(C)C)CC4)n3Cc3ccccc32)cc1OC [Example 254, {10-[(2,2′-Dimethoxy[1,1′-biphenyl]-4-yl)carbonyl]-10,11-dihydro-5H-pyrrolo[2,1-c][1,4]benzodiazepin-3-yl}{4-[3-(dimethylamino)propyl]-1-piperazinyl}methanone] | -4
4 | CN(C)CCCN1CCN(C(=O)c2ccc3n2Cc2ccccc2N(C(=O)c2ccc(-c4cccc5ccccc45)cc2Cl)C3)CC1 [Example 256, {10-[2-Chloro-4-(1-naphthyl)benzoyl]-10,11-dihydro-5H-pyrrolo[2,1-c][1,4]benzodiazepin-3-yl}{4-[3-(dimethylamino)propyl]-1-piperazinyl}methanone] | 40
5 | Cc1ccccc1-c1ccc(C(=O)N2Cc3ccc(C(=O)N4CCCN(C)CC4)n3Cc3ccccc32)cc1 [Example 65, {10-[(2′-Methyl[1,1′-biphenyl]-4-yl)carbonyl]-10,11-dihydro-5H-pyrrolo[2,1-c][1,4]benzodiazepin-3-yl}(4-methyl-1,4-diazepan-1-yl)methanone] | 6
6 | CN1CCN(C(=O)c2ccc3n2Cc2ccccc2N(C(=O)c2ccc(-c4cccc5ccccc45)cc2Cl)C3)CC1 [Example 58, {10-[2-Chloro-4-(1-naphthyl)benzoyl]-10,11-dihydro-5H-pyrrolo[2,1-c][1,4]benzodiazepin-3-yl}(4-methyl-1-piperazinyl)methanone] | 18
7 | COc1cccc(-c2cc(OC)c(C(=O)N3Cc4ccc(C(=O)N5CCCN(C)CC5)n4Cc4ccccc43)cc2Cl)c1 [Example 67, {10-[(6-Chloro-3,3′-dimethoxy[1,1′-biphenyl]-4-yl)carbonyl]-10,11-dihydro-5H-pyrrolo[2,1-c][1,4]benzodiazepin-3-yl}(4-methyl-1,4-diazepan-1-yl)methanone] | 4
8 | COc1ccccc1-c1ccc(C(=O)N2Cc3ccc(C(=O)NCCCN(C)C)n3Cc3ccccc32)cc1C [Example 72, N-[3-(Dimethylamino)propyl]-10-[(2′-methoxy-2-methyl[1,1′-biphenyl]-4-yl)carbonyl]-10,11-dihydro-5H-pyrrolo[2,1-c][1,4]benzodiazepine-3-carboxamide] | 26
9 | COc1ccccc1-c1ccc(C(=O)N2Cc3ccc(C(=O)N4CCCN(C)CC4)n3Cc3ccccc32)cc1OC [Example 69, {10-[(2,2′-Dimethoxy[1,1′-biphenyl]-4-yl)carbonyl]-10,11-dihydro-5H-pyrrolo[2,1-c][1,4]benzodiazepin-3-yl}(4-methyl-1,4-diazepan-1-yl)methanone] | 22
10 | COc1cc(-c2ccccc2C)c(Cl)cc1C(=O)N1Cc2ccc(C(=O)N3CCN(CCCN(C)C)CC3)n2Cc2ccccc21 [Example 251, {10-[(6-Chloro-3-methoxy-2′-methyl[1,1′-biphenyl]-4-yl)carbonyl]-10,11-dihydro-5H-pyrrolo[2,1-c][1,4]benzodiazepin-3-yl}{4-[3-(dimethylamino)propyl]-1-piperazinyl}methanone] | 24
11 | COc1cc(C(=O)N2Cc3ccc(C(=O)N4CCN(CCCN(C)C)CC4)n3Cc3ccccc32)ccc1-c1ccccc1C [Example 250, {4-[3-(Dimethylamino)propyl]-1-piperazinyl}{10-[(2-methoxy-2′-methyl[1,1′-biphenyl]-4-yl)carbonyl]-10,11-dihydro-5H-pyrrolo[2,1-c][1,4]benzodiazepin-3-yl}methanone] | -10
12 | Cc1ccccc1-c1ccc(C(=O)N2Cc3ccc(C(=O)N4CCN(CCCN(C)C)CC4)n3Cc3ccccc32)cc1 [Example 249, {4-[3-(Dimethylamino)propyl]-1-piperazinyl}{10-[(2′-methyl[1,1′-biphenyl]-4-yl)carbonyl]-10,11-dihydro-5H-pyrrolo[2,1-c][1,4]benzodiazepin-3-yl}methanone] | 9
13 | COc1cc(C(=O)N2Cc3ccc(C(=O)NCCCN(C)C)n3Cc3ccccc32)ccc1-c1ccccc1C [Example 77, N-[3-(Dimethylamino)propyl]-10-[(2-methoxy-2′-methyl[1,1′-biphenyl]-4-yl)carbonyl]-10,11-dihydro-5H-pyrrolo[2,1-c][1,4]benzodiazepine-3-carboxamide] | 28
14 | Cc1cc(C(=O)N2Cc3cccn3Cc3ccccc32)cc(C)c1-n1c(C)ccc1C [Example 30, [4-(2,5-Dimethyl-1H-pyrrol-1-yl)-3,5-dimethyl-phenyl][10,11-dihydro-5H-pyrrolo[2,1-c][1,4]benzodiazepin-10-yl]methanone] | 3
15 | Cc1cc(C(=O)N2Cc3ccc(C(=O)N[C@H]4CN5CCC4CC5)n3Cc3ccccc32)ccc1-c1ccccc1C(F)(F)F [Example 301, N-[(3R)-1-Azabicyclo[2.2.2]oct-3-yl]-10-{[2-methyl-2′-(trifluoromethyl)[1,1′-biphenyl]-4-yl]carbonyl}-10,11-dihydro-5H-pyrrolo[2,1-c][1,4]benzodiazepine-3-carboxamide] | 9
16 | COc1cc(C(=O)N2Cc3ccc(C(=O)N4CCCN(C)CC4)n3Cc3ccccc32)ccc1-c1cccc2ccccc12 [Example 68, {10-[3-Methoxy-4-(1-naphthyl)benzoyl]-10,11-dihydro-5H-pyrrolo[2,1-c][1,4]benzodiazepin-3-yl}(4-methyl-1,4-diazepan-1-yl)methanone] | 29
17 | COc1cccc(-c2ccc(C(=O)N3Cc4ccc(C(=O)N5CCCN(C)CC5)n4Cc4ccccc43)cc2OC)c1 [Example 70, {10-[(2,3′-Dimethoxy[1,1′-biphenyl]-4-yl)carbonyl]-10,11-dihydro-5H-pyrrolo[2,1-c][1,4]benzodiazepin-3-yl}(4-methyl-1,4-diazepan-1-yl)methanone] | 11
18 | COc1cc(C(=O)N2Cc3ccc(C(=O)N4CCN(C)CC4)n3Cc3ccccc32)ccc1-c1ccccc1C [Example 53, {10-[(2-Methoxy-2′-methyl[1,1′-biphenyl]-4-yl)carbonyl]-10,11-dihydro-5H-pyrrolo[2,1-c][1,4]benzodiazepin-3-yl}(4-methyl-1-piperazinyl)methanone] | 23

Further lines, results first:

Row | inhibition at 0.1 µM [%] | SMILES
19 | 3 | COc1ccccc1-c1ccc(C(=O)N2Cc3ccc(C(=O)n4ccnc4)n3Cc3ccccc32)cc1OC [Example 293, {10-[(2,2′-Dimethoxy[1,1′-biphenyl]-4-yl)carbonyl]-10,11-dihydro-5H-pyrrolo[2,1-c][1,4]benzodiazepin-3-yl}(1H-imidazol-1-yl)methanone]
20 | 7 | COc1cc(C(=O)N2Cc3ccc(C(=O)N(C)CCN(C)C)n3Cc3ccccc32)ccc1-n1c(C)ccc1C [Example 309, N-[2-(Dimethylamino)ethyl]-10-[4-(2,5-dimethyl-1H-pyrrol-1-yl)-3-methoxybenzoyl]-N-methyl-10,11-dihydro-5H-pyrrolo[2,1-c][1,4]benzodiazepine-3-carboxamide]
21 | 14 | COc1ccccc1-c1ccc(C(=O)N2Cc3ccc(C(=O)N[C@@H](CCCCNC(=O)OC(C)(C)C)C(N)=O)n3Cc3ccccc32)cc1OC [Example 303, tert-Butyl (5S)-6-amino-5-[({10-[(2,2′-dimethoxy[1,1′-biphenyl]-4-yl)carbonyl]-10,11-dihydro-5H-pyrrolo[2,1-c][1,4]benzodiazepin-3-yl}carbonyl)amino]-6-oxohexylcarbamate]
22 | 13 | COc1cc(C(=O)N2Cc3ccc(C(=O)N4CCN(C(C)C)CC4)n3Cc3ccccc32)ccc1-n1c(C)ccc1C [Example 319, {10-[4-(2,5-Dimethyl-1H-pyrrol-1-yl)-3-methoxybenzoyl]-10,11-dihydro-5H-pyrrolo[2,1-c][1,4]benzodiazepin-3-yl}(4-isopropyl-1-piperazinyl)methanone]
23 | 15 | COc1cc(C(=O)N2Cc3ccc(C(=O)N4CCN(CCN5CCOCC5)CC4)n3Cc3ccccc32)ccc1-n1c(C)ccc1C [Example 317, {10-[4-(2,5-Dimethyl-1H-pyrrol-1-yl)-3-methoxybenzoyl]-10,11-dihydro-5H-pyrrolo[2,1-c][1,4]benzodiazepin-3-yl}{4-[2-(4-morpholinyl)ethyl]-1-piperazinyl}methanone]
24 | 5 | Cc1cc(C(=O)N2Cc3cccn3Cc3ncccc32)ccc1-c1ccccc1C(F)(F)F [Example 323F, (2-Methyl-2′-trifluoromethyl-[1,1′-biphenyl]-4-yl)-(4H,10H-3a,5,9-triaza-benzo[f]azulen-9-yl)-methanone]
25 | 7 | COc1cc(C(=O)N2Cc3ccc(C(=O)NCCN4CCCCC4)n3Cc3ccccc32)ccc1-n1c(C)ccc1C [Example 314, 10-[4-(2,5-Dimethyl-1H-pyrrol-1-yl)-3-methoxybenzoyl]-N-[2-(1-piperidinyl)ethyl]-10,11-dihydro-5H-pyrrolo[2,1-c][1,4]benzodiazepine-3-carboxamide]
26 | 27 | COc1ccccc1-c1ccc(C(=O)N2Cc3ccc(C(=O)N[C@@H](Cc4c[nH]cn4)C(N)=O)n3Cc3ccccc32)cc1OC [Example 286, N-[(1S)-2-Amino-1-(1H-imidazol-4-ylmethyl)-2-oxoethyl]-10-[(2,2′-dimethoxy[1,1′-biphenyl]-4-yl)carbonyl]-10,11-dihydro-5H-pyrrolo[2,1-c][1,4]benzodiazepine-3-carboxamide]
